Assay results published in US11571404B2, “Compositions and methods for the treatment of liver diseases and disorders associated with one or both of hyperammonemia or muscle wasting” (priority 2017, dated 2023).

How the values were obtained:
[1] = system: C3A derivative clone of the HepG2 Hepatocellular Carcinoma cell line; test: Hepatic albumin production in cirrhosis media, ELISA normalized to nuclei (Example 9); type: cell-based, human; conditions: for Albumin/Nuclei (mean): 48 hours
Method: Media composed of amino acids consistent with profiles of cirrhotic individuals was tested for effect on production of albumin. Effects of […], components and comparator compositions on albumin production were determined. Methods: The ability of […] to increase hepatocyte albumin production was assessed using the C3A derivative clone of the HepG2 Hepatocellular Carcinoma cell line (ATCC, CRL-10741). 2.0e4 cells per well were seeded on day 0 in a 96-well microplate (Corning; 3903) in Dulbecco's Modified Eagle Medium (DMEM, Corning) supplemented with 10% fetal bovine serum (Corning) and 0.2% Primocin (InVivoGen, San Diego, Calif.) and incubated for 24 hours at 37° C., 5% CO2. […] Cells were cultured for 48 hours at 37° C., 5% CO2, media was collected, cells were washed 1× in PBS, fixed in 4% paraformaldehyde, washed 2× in PBS, nuclei were stained with Hoechst 33342 according to manufacturer's instructions (Life Technologies, H3570) and then washed 2× in PBS. Media albumin levels were assessed by R&D Systems's DuoSet ELISA Development System for Human Serum Albumin (R&D Systems, DY1455) and nuclei were counted using Molecular Devices Image Express High Content Screening platform and pre-installed nuclei counting analysis pipeline. Albumin levels were normalized to total nuclei in order to derive a per cell albumin production ratio.

[2] = system: primary human myotubes; test: TNF induced myotube atrophy, MYOSCREEN platform (Example 10); type: cell-based; parameters: Myotube Area mean: unit not given here; conditions: for Fusion Index mean / Myotube Area mean: TNFalpha 10 ng/mL, N=3
Method: Methods: Experiment was performed using the […] platform (CYTOO, France). Briefly, […] is a proprietary technology based on micropatterning and defined microenvironments that establish highly mature primary human myotubes with substantial striation and low morphological variability. Primary cells derived from skeletal muscle of healthy human donors are differentiated to form myotubes (multinucleated syncytia) that are highly reminiscent of human muscle tissue. […] is a fully automated platform that interrogates multiple phenotypes relevant for muscle physiology including myotube area, fusion index, and total nuclei. On Day 0 expanded primary myoblasts from a healthy human donor were seeded at 10,000 cells per well for 24 hour at 37 deg C. […] Importantly, treatment groups were prepared in PBS and final concentration in all wells, including controls, was 10% PBS. On Day 2 cells were switched to Cirrhosis Media based on DMEM comprising 0.1% horse serum and 0.5× amino acids at ratios of plasma of cirrhosis (Kakazu et al., 2013) containing atrophy inducer TNFalpha (10 ng/mL) and again treated according to Day 1 and Table 16. On Day 6 cells were fixed with 5% Formalin for 30 minutes at room temperature. Fixed cells were processed for immunostaining with primary antibody against Troponin T to stain myotubes and Hoeschst dye for nuclei. Image acquisition was done at 10× magnification using Operetta High Content Imaging System and analysis was performed using a proprietary and dedicated algorithm on the Acapella High Content Imaging System (Perkin Elmer, CYTOO).

[3] = dose 5X of concentration in cirrhosis media
[4] = dose 10x of concentration in cirrhosis media
[5] = dose 20X of concentration in cirrhosis media
[6] = dose 30X of concentration in cirrhosis media

CC(C)C[C@H](N)C(=O)O [L, L-leucine]
Albumin/Nuclei (mean) ([1]; Dose 5X of basal media concentrations): −0.087 | Albumin/Nuclei (mean) ([1]; Dose 10X of basal media concentrations): −0.116 | Albumin/Nuclei (mean) ([1]; Dose 20X of basal media concentrations): −0.219 | Albumin/Nuclei (mean) ([1]; Dose 40X of basal media concentrations): 0.148 | Effect on Albumin ([1]; over the dose curve 5X-40X): No Effect | Effect on Atrophy ([2]; TNF induced myotube atrophy, overall call across doses): no effect | Fusion Index mean [2, 3]: 0.087 | Myotube Area mean [2, 3]: 4499.140 | Fusion Index mean [2, 4]: 0.094 | Myotube Area mean [2, 4]: 4480.850 | Fusion Index mean [2, 5]: 0.091 | Myotube Area mean [2, 5]: 4679.729 | Fusion Index mean [2, 6]: 0.092 | Myotube Area mean [2, 6]: 4579.231
